Legend:
barnyardgrass [1] = assay: Test B pre-/postemergence herbicide test; format: in vivo, Echinochloa crus-galli; details: for Plant response rating (0 to 100 scale), Barnyardgrass: 0 is no effect, preemergence
Method in brief: (§1)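 Formulation: non-phytotoxic solvent mix with surfactant. Timing: preemergence on seed and postemergence on 2–18 cm plants, applied concurrently. Readout after 13–15 d greenhouse: visual 0–100 control rating against controls.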

Surinam grass = assay: Test B pre-/postemergence herbicide test; format: in vivo, Urochloa decumbens; details: for Plant response rating (0 to 100 scale), Surinam Grass: 0 is no effect, 100 is complete control, preemergence
Method in brief: (§2)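 Response was scored visually 13 to 15 days after treatment against untreated greenhouse controls, 0 meaning no effect and 100 complete control. Formulations (solvent mixture plus surfactant) went onto soil after planting, onto foliage of 1- to 4-leaf plants, and onto 2-leaf plants in a flooded paddy set including rice and barnyardgrass.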

cocklebur = assay: Test B pre-/postemergence herbicide test; format: in vivo, Xanthium strumarium; details: for Plant response rating (0 to 100 scale), Cocklebur: 0 is no effect, preemergence
Method in brief: as §1

corn = assay: Test B pre-/postemergence herbicide test; format: in vivo, Zea mays; details: for Plant response rating (0 to 100 scale), Corn: 0 is no effect, preemergence
Method in brief: as §2

large crabgrass = assay: Test B pre-/postemergence herbicide test; format: in vivo, Digitaria sanguinalis; details: for Plant response rating (0 to 100 scale), Crabgrass, Large: 0 is no effect, preemergence
Method in brief: as §2

giant foxtail = assay: Test B pre-/postemergence herbicide test; format: in vivo, Setaria faberi; details: for Plant response rating (0 to 100 scale), Foxtail, Giant: 0 is no effect, preemergence
Method in brief: as §2

pigweed = assay: Test B pre-/postemergence herbicide test; format: in vivo, Amaranthus retroflexus; details: for Plant response rating (0 to 100 scale), Pigweed: 0 is no effect, 100 is complete control, preemergence
Method in brief: as §2

velvetleaf = assay: Test B pre-/postemergence herbicide test; format: in vivo, Abutilon theophrasti; details: for Plant response rating (0 to 100 scale), Velvetleaf: 0 is no effect, 100 is complete control, preemergence
Method in brief: as §2

blackgrass = assay: Test B postemergence herbicide test; format: in vivo, Alopecurus myosuroides
Method in brief: (§3)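 Scale 0–100: zero equals no visible effect, 100 complete control, judged by eye relative to controls. Timing: 13 to 15 days in greenhouse post-treatment. Growth stage at spraying: two leaves (paddy) or one to four leaves, 2–18 cm (postemergence).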

wheat = assay: Test B postemergence herbicide test; format: in vivo, Triticum aestivum; parameters: key to Wheat plant response rating: 0 = no effect, 100 = complete control
Method in brief: (§4)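 Read-out: visual comparison with controls, scored 0 to 100, where 100 means complete control and 0 no effect. Formulated chemicals were applied postemergence to plants 2–18 cm tall (1- to 4-leaf), or to flooded-paddy plants at the 2-leaf stage, then held 13 to 15 days under glass.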

wild oat = assay: Test B postemergence herbicide test; format: in vivo, Avena fatua
Method in brief: as §4

rice = assay: Test B flooded paddy test; format: in vivo, Oryza sativa; details: 1000 g ai/ha, scale 0 to 100 (0 no effect, 100 complete control)
Method in brief: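 Postemergence plants were sprayed with formulated test chemicals at 2 to 18 cm height (1- to 4-leaf stage); paddy species were grown to the 2-leaf stage. After 13 to 15 days in a greenhouse, injury was rated visually against untreated controls on a 0–100 scale (0 = no effect, 100 = complete control).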

[2] = tested on: small flower umbrella sedge; assay: Test B flooded paddy test; format: in vivo, Cyperus difformis; details: 1000 g ai/ha, scale 0 to 100 (0 no effect, 100 complete control)
Method in brief: as §3

ducksalad = assay: Test B flooded paddy test; format: in vivo, Heteranthera limosa; details: 1000 g ai/ha, scale 0 to 100 (0 no effect, 100 complete control)
Method in brief: as §3

barnyardgrass [3] = assay: Test B flooded paddy test; format: in vivo, Echinochloa crus-galli; details: 1000 g ai/ha, scale 0 to 100 (0 no effect, 100 complete control)
Method in brief: as §3

[4] = 125 g ai/ha, 100 is complete control
[5] = 125 g ai/ha, visual rating, scale 0 (no effect) to 100 (complete control), postemergence
[6] = postemergence, 500 g ai/ha, scale 0 to 100, 0 is no effect, 100 is complete control
[7] = Postemergence, 500 g ai/ha, scale 0 (no effect) to 100 (complete control)
[8] = 500 g ai/ha, scale 0 to 100, 0 no effect, 100 complete control, preemergence
[9] = Postemergence, 125 g ai/ha, scale 0 (no effect) to 100 (complete control)
[10] = postemergence, 125 g ai/ha, scale 0 to 100

Row | SMILES | Plant response rating (0 to 100 scale), Barnyardgrass (barnyardgrass [1]; [4]) | Plant response rating (0 to 100 scale), Surinam Grass (Surinam grass; 125 g ai/ha) | Surinam Grass plant response rating (Surinam grass; [7]) | Plant response rating (0 to 100 scale), Cocklebur (cocklebur; [4]) | Plant response rating (0 to 100 scale), Corn (corn; [4]) | Plant response rating (0 to 100 scale), Crabgrass, Large (large crabgrass; [4]) | Plant response rating (0 to 100 scale), Foxtail, Giant (giant foxtail; [4]) | Plant response rating (0 to 100 scale), Pigweed (pigweed; 125 g ai/ha) | Pigweed plant response rating (pigweed; [7]) | Plant response rating (0 to 100 scale), Velvetleaf (velvetleaf; 125 g ai/ha) | Velvetleaf plant response rating (velvetleaf; [7]) | Wheat plant response rating (wheat; [8]) | Wheat plant response rating (wheat; [7]) | Oat, Wild plant response rating (wild oat; [7]) | Rice plant response rating (rice) | Sedge, Umbrella plant response rating [2] | Ducksalad plant response rating (ducksalad) | Barnyardgrass plant response rating (barnyardgrass [3]) | Barnyardgrass plant response rating (barnyardgrass [1]; [7]) | Cocklebur plant response rating (cocklebur; [7]) | other results
1 | C#CCNC(=O)c1cccc(NC(=O)c2nn(C(C)(C)C)nc2CC)c1 [Compound 380] | 70 | 40 | 30 | 0 | 0 | 90 | 70 | 100 | 80 | 10 | 30 | 100 | 10 | 30 | 70 | 70 | 80 | 70 |  |  | Barnyardgrass plant response rating (barnyardgrass [1]; [5]): 0; Barnyardgrass plant response rating (barnyardgrass [1]; [6]): 0; Surinam Grass plant response rating (Surinam grass; [5]): 10; Cocklebur plant response rating (cocklebur; [5]): 20; Cocklebur plant response rating (cocklebur; [6]): 30; Corn plant response rating (corn; [5]): 0; Corn plant response rating (corn; [6]): 20; Crabgrass, Large plant response rating (large crabgrass; [5]): 0; Crabgrass, Large plant response rating (large crabgrass; [6]): 10; Foxtail, Giant plant response rating (giant foxtail; [5]): 0; Foxtail, Giant plant response rating (giant foxtail; [6]): 20; Pigweed plant response rating (pigweed; [5]): 50; Velvetleaf plant response rating (velvetleaf; [5]): 10; Blackgrass plant response rating (blackgrass; [5]): 20; Blackgrass plant response rating (blackgrass; [6]): 40; Wheat plant response rating (wheat; [5]): 10; Oat, Wild plant response rating (wild oat; [5]): 10
2 | Cc1nn(C(C)(C)C)nc1C(=O)Nc1cccc(C(=O)N(C)C)c1 [Compound 391] | 100 | 100 | 30 | 70 | 90 | 100 | 90 | 100 | 70 | 80 | 60 | 100 | 10 | 20 | 90 | 80 | 90 | 90 | 30 | 30 | Barnyardgrass plant response rating (barnyardgrass [1]; [5]): 10; Surinam Grass plant response rating (Surinam grass; [5]): 10; Cocklebur plant response rating (cocklebur; [5]): 30; Corn plant response rating (corn; [5]): 10; Corn plant response rating (corn; [7]): 30; Crabgrass, Large plant response rating (large crabgrass; [5]): 10; Crabgrass, Large plant response rating (large crabgrass; [7]): 30; Foxtail, Giant plant response rating (giant foxtail; [5]): 20; Foxtail, Giant plant response rating (giant foxtail; [7]): 30; Pigweed plant response rating (pigweed; [5]): 50; Velvetleaf plant response rating (velvetleaf; [5]): 40; Blackgrass plant response rating (blackgrass; [5]): 30; Blackgrass plant response rating (blackgrass; [7]): 70; Wheat plant response rating (wheat; [5]): 0; Oat, Wild plant response rating (wild oat; [5]): 0
3 | CCNC(=O)c1ccc(F)c(N(C(C)=O)C(=O)c2cc(C(C)(C)C)nn2CC)c1 [Compound 399] | 90 | 90 | 40 | 50 | 90 | 100 | 100 | 100 | 80 | 80 | 80 | 100 | 30 | 40 | 80 | 80 | 90 | 90 | 40 | 80 | Barnyardgrass plant response rating (barnyardgrass [1]; [5]): 10; Surinam Grass plant response rating (Surinam grass; [5]): 20; Cocklebur plant response rating (cocklebur; [5]): 60; Corn plant response rating (corn; [5]): 10; Corn plant response rating (corn; [7]): 40; Crabgrass, Large plant response rating (large crabgrass; [5]): 20; Crabgrass, Large plant response rating (large crabgrass; [7]): 30; Foxtail, Giant plant response rating (giant foxtail; [5]): 30; Foxtail, Giant plant response rating (giant foxtail; [7]): 50; Pigweed plant response rating (pigweed; [5]): 60; Velvetleaf plant response rating (velvetleaf; [5]): 20; Blackgrass plant response rating (blackgrass; [5]): 30; Blackgrass plant response rating (blackgrass; [7]): 70; Wheat plant response rating (wheat; [5]): 10; Oat, Wild plant response rating (wild oat; [5]): 20
4 | C#CCOc1cccc(NC(=O)c2cc(C(C)(C)C)nn2CC)c1 [Compound 411] | 60 | 10 | 10 | 0 | 0 | 80 | 10 | 30 | 90 | 0 | 10 | 60 | 30 | 50 | 50 | 80 | 80 | 50 | 30 | 60 | Barnyardgrass plant response rating (barnyardgrass [1]; [9]): 0; Surinam Grass plant response rating (Surinam grass; [10]): 0; Cocklebur plant response rating (cocklebur; [10]): 0; Corn plant response rating (corn; [7]): 10; Corn plant response rating (corn; [10]): 10; Crabgrass, Large plant response rating (large crabgrass; [7]): 30; Crabgrass, Large plant response rating (large crabgrass; [10]): 0; Foxtail, Giant plant response rating (giant foxtail; [7]): 30; Foxtail, Giant plant response rating (giant foxtail; [10]): 20; Pigweed plant response rating (pigweed; [10]): 80; Velvetleaf plant response rating (velvetleaf; [10]): 0; Blackgrass plant response rating (blackgrass; [7]): 60; Blackgrass plant response rating (blackgrass; [10]): 40; Wheat plant response rating (wheat; [10]): 20; Oat, Wild plant response rating (wild oat; [10]): 40
5 | C=CCOc1cccc(NC(=O)c2cc(C(C)(C)C)nn2CC)c1 [Compound 412] | 40 | 0 | 30 | 0 | 0 | 50 | 30 | 50 | 100 | 0 | 10 | 20 | 20 | 40 | 40 | 90 | 80 | 40 | 0 | 30 | Barnyardgrass plant response rating (barnyardgrass [1]; [9]): 0; Surinam Grass plant response rating (Surinam grass; [10]): 0; Cocklebur plant response rating (cocklebur; [10]): 0; Corn plant response rating (corn; [7]): 0; Corn plant response rating (corn; [10]): 0; Crabgrass, Large plant response rating (large crabgrass; [7]): 30; Crabgrass, Large plant response rating (large crabgrass; [10]): 0; Foxtail, Giant plant response rating (giant foxtail; [7]): 30; Foxtail, Giant plant response rating (giant foxtail; [10]): 30; Pigweed plant response rating (pigweed; [10]): 90; Velvetleaf plant response rating (velvetleaf; [10]): 0; Blackgrass plant response rating (blackgrass; [7]): 40; Blackgrass plant response rating (blackgrass; [10]): 40; Wheat plant response rating (wheat; [10]): 10; Oat, Wild plant response rating (wild oat; [10]): 30

Reference: patent US20060069132A1, “Azolecarboxamide herbicides” (priority 2004, published 2006)
